Reference: US11173146B2, “Selective activators of the intermediate conductance CA2+activated K+ channel KCa3.1 and their methods of use” (The Regents of the University of California, priority 2014, dated 2021)
Read-outs that look alike come from different tables or passages of the source.

Assays:
hNaV1.7 = target: T1, hNaV1.7 (Homo sapiens, UniProt Q15858); test: NaV1.7 current inhibition (CHO cells); format: cell-based
T1 construct: host or cells: CHO (division arrested)

[1] = tested on: porcine coronary arteries; test: Isometric myography on porcine coronary arteries, bradykinin-induced EDH-type relaxation; details: compound 1 μM; for BK (1 μM)-induced relaxation potentiated to: U46619-precontracted, L-NNA and indomethacin
Text: Isometric Myography on Porcine Coronary Arteries (PCA). PCA were carefully dissected from hearts kindly provided by the local abattoir (Mercazaragoza, Zaragoza, Spain), cleaned of fat and connective tissue, and cut into 3-4 mm rings. Rings were mounted on hooks connected to an isometric force transducer (Pioden UF1, Graham Bell House, Canterbury, UK) and were pre-stretched to an initial tension of 1 g. […] Changes in tension were registered using a Mac Lab System/8e program (AD Instruments Inc., Milford, Mass.). The buffer contained the NO-synthase blocker, Nω-nitro-L-arginine (L-NNA, 300 μM), and the cyclooxygenase blocker indomethacin (10 μM) in order to measure EDH-type relaxation. […] After washout, rings were contracted with a high KCl buffer (60 mM) to determine maximal contraction. […] UCL1684 and U46619 were purchased from Tocris (Wiesbaden-Nordenstadt, Germany). Data analysis: EDH-type relaxations were determined as % change of U46619 contraction and are shown relative to the totally relaxed state (w/o U46619).

mNaV1.2 = target: T2, mNaV1.2 (Mus musculus, UniProt B1AWN6); test: NaV1.2 current inhibition (N1E-115 cells); format: cell-based
T2 construct: NaV1.2 currents from N1E-115 cells; host or cells: N1E-115 mouse neuroblastoma
T2 sequence (B1AWN6 whole entry): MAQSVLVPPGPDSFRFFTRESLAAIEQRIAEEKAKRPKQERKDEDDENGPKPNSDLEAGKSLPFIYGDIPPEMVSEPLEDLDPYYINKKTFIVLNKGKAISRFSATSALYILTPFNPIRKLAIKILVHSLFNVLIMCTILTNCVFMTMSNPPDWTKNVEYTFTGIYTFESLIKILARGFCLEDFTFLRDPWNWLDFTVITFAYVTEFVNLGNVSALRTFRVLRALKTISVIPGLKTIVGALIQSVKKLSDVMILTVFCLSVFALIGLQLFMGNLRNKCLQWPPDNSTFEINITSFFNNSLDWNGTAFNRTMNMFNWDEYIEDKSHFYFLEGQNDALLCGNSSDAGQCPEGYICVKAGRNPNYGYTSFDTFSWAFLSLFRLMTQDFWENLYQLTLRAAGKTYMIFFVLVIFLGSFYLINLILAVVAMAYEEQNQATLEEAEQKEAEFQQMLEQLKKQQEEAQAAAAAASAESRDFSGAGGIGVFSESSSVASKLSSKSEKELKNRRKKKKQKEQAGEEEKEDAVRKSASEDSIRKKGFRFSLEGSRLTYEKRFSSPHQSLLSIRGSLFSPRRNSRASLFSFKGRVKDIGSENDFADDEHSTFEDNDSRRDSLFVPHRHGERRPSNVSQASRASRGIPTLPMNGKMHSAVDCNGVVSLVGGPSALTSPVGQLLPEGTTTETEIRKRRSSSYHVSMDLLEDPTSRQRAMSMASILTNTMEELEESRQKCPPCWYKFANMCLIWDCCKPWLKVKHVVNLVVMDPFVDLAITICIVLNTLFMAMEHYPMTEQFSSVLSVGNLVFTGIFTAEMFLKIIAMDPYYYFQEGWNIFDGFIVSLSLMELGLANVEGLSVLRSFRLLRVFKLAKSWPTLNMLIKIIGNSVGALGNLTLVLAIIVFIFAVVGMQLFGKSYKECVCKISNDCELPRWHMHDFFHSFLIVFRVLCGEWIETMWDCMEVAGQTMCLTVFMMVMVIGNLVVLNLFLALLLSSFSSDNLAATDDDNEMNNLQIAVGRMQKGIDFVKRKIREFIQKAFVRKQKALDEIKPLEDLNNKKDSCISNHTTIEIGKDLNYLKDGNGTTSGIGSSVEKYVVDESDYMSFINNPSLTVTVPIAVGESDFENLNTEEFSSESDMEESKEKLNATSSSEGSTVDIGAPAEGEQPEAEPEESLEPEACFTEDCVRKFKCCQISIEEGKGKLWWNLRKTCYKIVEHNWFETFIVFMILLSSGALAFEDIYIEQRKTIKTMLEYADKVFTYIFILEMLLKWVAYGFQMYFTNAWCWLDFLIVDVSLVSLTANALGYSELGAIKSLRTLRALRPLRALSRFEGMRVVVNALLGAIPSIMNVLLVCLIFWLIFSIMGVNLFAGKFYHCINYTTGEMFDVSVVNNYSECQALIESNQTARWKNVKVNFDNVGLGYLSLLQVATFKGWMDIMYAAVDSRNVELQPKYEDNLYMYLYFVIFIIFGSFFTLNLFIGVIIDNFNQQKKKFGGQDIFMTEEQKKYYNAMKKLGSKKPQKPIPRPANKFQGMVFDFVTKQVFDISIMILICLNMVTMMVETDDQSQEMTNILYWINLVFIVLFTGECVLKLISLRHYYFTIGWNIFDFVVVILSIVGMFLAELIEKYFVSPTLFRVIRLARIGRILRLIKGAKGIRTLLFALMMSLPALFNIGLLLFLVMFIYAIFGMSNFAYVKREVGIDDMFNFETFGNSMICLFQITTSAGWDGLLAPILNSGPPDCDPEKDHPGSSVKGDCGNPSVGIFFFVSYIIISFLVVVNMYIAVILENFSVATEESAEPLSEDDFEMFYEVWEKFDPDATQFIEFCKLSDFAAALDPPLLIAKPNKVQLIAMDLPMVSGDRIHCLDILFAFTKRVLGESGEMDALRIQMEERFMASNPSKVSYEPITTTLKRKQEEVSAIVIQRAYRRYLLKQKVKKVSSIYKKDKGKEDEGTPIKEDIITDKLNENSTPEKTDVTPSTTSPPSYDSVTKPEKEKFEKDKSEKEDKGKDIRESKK

human KCa2.3 = target: T3, human KCa2.3 (Homo sapiens, UniProt Q9UGI6); test: Manual whole-cell patch-clamp KCa2.3 activation (COS-7); format: cell-based
T3 construct: The cloning of hKCa2.3 (19 CAG repeats) and hKCa3.1 has been previously described (Wulff et al., 2000)
T3 sequence (Q9UGI6 with tags, fused parts or gaps DUP76-80): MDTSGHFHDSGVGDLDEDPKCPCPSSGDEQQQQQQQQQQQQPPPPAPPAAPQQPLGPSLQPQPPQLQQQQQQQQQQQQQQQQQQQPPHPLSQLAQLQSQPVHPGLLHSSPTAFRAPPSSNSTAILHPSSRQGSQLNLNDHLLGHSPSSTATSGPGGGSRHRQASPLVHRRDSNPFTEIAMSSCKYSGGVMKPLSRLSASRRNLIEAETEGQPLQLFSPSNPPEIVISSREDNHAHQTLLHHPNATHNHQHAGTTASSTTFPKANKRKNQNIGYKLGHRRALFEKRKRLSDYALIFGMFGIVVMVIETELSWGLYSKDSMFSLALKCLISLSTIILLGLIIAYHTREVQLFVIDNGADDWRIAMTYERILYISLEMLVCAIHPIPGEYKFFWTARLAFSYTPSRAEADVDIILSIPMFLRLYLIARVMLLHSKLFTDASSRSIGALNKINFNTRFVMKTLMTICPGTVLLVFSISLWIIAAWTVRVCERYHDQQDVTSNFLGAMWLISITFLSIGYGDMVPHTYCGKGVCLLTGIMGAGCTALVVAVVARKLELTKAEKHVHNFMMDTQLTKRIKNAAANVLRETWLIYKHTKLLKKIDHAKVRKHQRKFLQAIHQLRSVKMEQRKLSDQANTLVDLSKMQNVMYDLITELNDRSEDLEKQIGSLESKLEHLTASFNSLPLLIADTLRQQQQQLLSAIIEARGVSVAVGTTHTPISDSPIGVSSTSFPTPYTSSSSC
Text: Cells, Cell lines and Clones. […] The cloning of hKCa2.3 (19 CAG repeats) and hKCa3.1 has been previously described (Wulff et al., 2000). The hKCa2.3 clone was later stably expressed in COS-7 cells at Aurora Biosciences Corp., San Diego, Calif. Cell lines stably expressing other mammalian ion channels were gifts from several sources: hKCa1.1 in HEK-293 cells (Andrew Tinker, University College London); hKV2.1 in HEK293 cells (James Trimmer, UC Davis); KV11.1 (HERG) in HEK-293 cells (Craig January, University of Wisconsin, Madison); hNaV1.4 in HEK-293 cells (Frank Lehmann-Horn, University of Ulm, Germany), hNaV1.5 in HEK-293 cells (Christopher Lossin, University of California Davis), and hCaV1.2 in HEK-293 cells (Franz Hofmann, Munich, Germany).
Electrophysiology. Experiments were conducted either manually with an EPC-10 amplifier (HEKA, Lambrecht/Pfalz, Germany) or on a QPatch-16 automated electrophysiology platform (Sophion Biosciences, Denmark). […] Patch pipettes were pulled from soda lime glass (micro-hematocrit tubes, Kimble Chase, Rochester, N.Y.) and had resistances of 2-3 MΩ. […] Free Ca^2+ concentrations were calculated with MaxChelator assuming a temperature of 25° C., a pH of 7.2 and an ionic strength of 160 mM. […] Na^+ aspartate Ringer was used as an external solution (in mM): 160 Na^+ aspartate, 4.5 KCl, 2 CaCl2, 1 MgCl2, 5 HEPES, pH 7.4, 290-310 mOsm. […] Reduction of both peak and tail current by the drug was determined. NaV1.7 currents were recorded with 30 ms pulses from −90 mV to −10 mV every 10 sec with a CsF-based pipette solution and normal Ringer as an external solution. CaV1.2 currents were elicited by 100-ms depolarizing pulses from −80 to 20 mV every 10 sec with a CsCl-based pipette solution and an external solution containing 30 mM BaCl2. Blockade of both Na^+ and Ca^2+ currents was determined as reduction of the current minimum.
For all electrophysiology experiments solutions of benzothiazoles and benzooxazoles were always freshly prepared from 1 mM or 10 mM stock solutions in DMSO during the experiment. The final DMSO concentration never exceeded 1%. For automated assays glass vial inserts (Sophion Biosciences, Denmark) were filled with 350-400 μL of compound solution and placed into the glass insert base plate for use in the QPatch assay right before starting the QPatch.
The compounds synthesized by these methods as well as five commercially available compounds were tested for their KCa2.3 and KCa3.1 activating activity using either manual or automated whole-cell patch-clamp. Our group previously described the establishment of a QPatch assay for KCa3.1 modulators. […] We here made use of this assay and determined EC50 values for KCa3.1 activation using HEK-293 cells stably expressing human KCa3.1. Activities on human KCa2.3 were determined by manual electrophysioiogy since we currently only have KCa2.3 available in COS-7 cells, which are difficult to handle on the QPatch.

T1 sequence (Q15858 whole entry): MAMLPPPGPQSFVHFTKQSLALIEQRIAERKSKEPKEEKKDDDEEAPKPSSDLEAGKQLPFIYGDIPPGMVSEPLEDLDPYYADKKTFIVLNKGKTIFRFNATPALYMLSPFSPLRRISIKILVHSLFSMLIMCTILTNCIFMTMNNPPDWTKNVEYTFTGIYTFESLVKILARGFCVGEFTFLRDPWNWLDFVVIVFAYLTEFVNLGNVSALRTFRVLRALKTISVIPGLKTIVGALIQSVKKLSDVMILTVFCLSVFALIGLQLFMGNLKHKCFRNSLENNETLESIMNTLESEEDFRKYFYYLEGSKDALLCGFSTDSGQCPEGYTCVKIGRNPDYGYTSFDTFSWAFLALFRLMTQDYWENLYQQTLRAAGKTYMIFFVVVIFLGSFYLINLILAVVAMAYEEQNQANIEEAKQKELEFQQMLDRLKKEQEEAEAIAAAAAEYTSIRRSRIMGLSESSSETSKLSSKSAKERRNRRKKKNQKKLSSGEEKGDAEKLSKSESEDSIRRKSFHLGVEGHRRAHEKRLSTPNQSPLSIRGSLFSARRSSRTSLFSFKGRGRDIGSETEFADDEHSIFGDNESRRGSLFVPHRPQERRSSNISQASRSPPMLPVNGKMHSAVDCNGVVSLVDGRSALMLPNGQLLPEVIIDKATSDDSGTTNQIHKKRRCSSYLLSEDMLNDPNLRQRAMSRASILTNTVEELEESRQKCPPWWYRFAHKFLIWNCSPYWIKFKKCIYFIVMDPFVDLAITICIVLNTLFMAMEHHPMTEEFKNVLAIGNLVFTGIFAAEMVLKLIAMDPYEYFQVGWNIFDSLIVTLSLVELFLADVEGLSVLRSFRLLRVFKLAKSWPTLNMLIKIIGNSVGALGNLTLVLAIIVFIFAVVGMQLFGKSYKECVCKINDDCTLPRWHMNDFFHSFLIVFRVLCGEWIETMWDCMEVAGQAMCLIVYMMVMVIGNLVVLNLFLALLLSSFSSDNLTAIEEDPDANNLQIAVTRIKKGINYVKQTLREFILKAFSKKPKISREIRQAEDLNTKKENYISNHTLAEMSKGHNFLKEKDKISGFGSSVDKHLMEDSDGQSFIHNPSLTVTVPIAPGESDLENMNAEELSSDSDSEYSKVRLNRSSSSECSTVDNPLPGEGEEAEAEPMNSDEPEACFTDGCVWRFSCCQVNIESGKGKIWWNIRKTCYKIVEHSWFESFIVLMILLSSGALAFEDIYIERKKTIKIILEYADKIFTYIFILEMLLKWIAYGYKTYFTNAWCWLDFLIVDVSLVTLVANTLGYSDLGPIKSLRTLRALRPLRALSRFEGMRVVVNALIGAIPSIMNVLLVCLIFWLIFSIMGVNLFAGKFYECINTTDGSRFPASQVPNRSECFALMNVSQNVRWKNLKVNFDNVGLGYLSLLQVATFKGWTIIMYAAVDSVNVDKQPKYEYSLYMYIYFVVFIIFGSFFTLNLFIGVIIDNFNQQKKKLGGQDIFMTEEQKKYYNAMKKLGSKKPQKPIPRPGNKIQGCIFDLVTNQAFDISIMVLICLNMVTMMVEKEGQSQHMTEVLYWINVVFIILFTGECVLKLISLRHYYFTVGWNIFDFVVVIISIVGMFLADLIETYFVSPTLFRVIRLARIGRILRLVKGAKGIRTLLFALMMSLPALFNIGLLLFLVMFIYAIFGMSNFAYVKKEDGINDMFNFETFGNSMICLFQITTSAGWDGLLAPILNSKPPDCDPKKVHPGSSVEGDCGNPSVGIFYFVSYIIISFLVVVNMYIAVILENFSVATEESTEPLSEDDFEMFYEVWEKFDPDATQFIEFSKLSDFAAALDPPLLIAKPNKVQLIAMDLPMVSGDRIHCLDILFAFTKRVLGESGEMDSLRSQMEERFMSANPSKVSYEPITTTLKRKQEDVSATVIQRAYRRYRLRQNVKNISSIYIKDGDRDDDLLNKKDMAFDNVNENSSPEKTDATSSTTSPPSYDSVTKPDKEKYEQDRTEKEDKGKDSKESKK

Structure (SMILES): Cc1cc2sc(N)nc2c2ccccc12 [SKA-111, 5-methylnaphtho[1,2-d]thiazol-2-amine]
- inhibition at 25 µM (hNaV1.7; at 25 μM): 27.5 ± 0.9%
- bradykinin-induced EDH-type relaxation [1]: increased
- BK (1 μM)-induced relaxation potentiated to [1]: ≈ 200%
- inhibition at 25 µM (mNaV1.2; at 25 μM): 19.5 ± 6.9%
- EC50 (human KCa2.3; read-out: EC50 for KCa2.3 activation; 250 nM free Ca2+): 13.7 ± 6.9 µM

Structure (SMILES): Cc1cc2nc(N)oc2c2ccccc12 [SKA-121, 5-Methylnaphtho[2,1-d]oxazol-2-amine]
- inhibition at 50 µM (hNaV1.7; at 50 μM): 28.5 ± 1.8%
- bradykinin-induced EDH-type relaxation [1]: increased
- BK (1 μM)-induced relaxation potentiated to [1]: ≈ 300%
- inhibition at 50 µM (mNaV1.2; at 50 μM): 15.2 ± 12.7%
- EC50 (human KCa2.3; 250 nM free Ca2+; read-out: EC50 for KCa2.3 activation): 4.4 ± 2.3 µM
- Hill coefficient nH, KCa2.3 concentration-response curve (human KCa2.3; FIG. 4 legend): 1.6
- EC50 (human KCa2.3; Table 1; 250 nM free Ca2+; read-out: KCa2.3 EC50): 4.4 ± 2.6 µM
